This note sets out measurements from PubChem BioAssay (NCI).

“And” between values parts separate entries of the source, which are not always exact repeats. Equal values may be shown once.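 Five concentrations, 48 hours, 96-well plates. Abbreviation: GI50, concentration required for 50% inhibition of growth. TGI: concentration producing complete growth inhibition.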 A value given as a limit tells only on which side of the number the result lay.

One test relates to NCI-H23 lung. Kind of test: growth of human tumour cells (NCI), 48 h.
For the compound `O=C(O)CCC(NC(=S)S)C(=O)O.[Na+].[Zn+2]` (configuration not stated), the GI50 was over 50 µM and the TGI is over 50 µM.
On to `O=c1c(Cl)c(Cl)cnn1CCc1ccncc1`, for which the TGI came to 34.1 µM.

Another test has as its system RPMI-8226 leukemia. Kind of test: growth of human tumour cells (NCI), 48 h.
In the case of `Cc1cc(Nc2nc(SCc3ccc(C(=O)Nc4ccc(F)cc4N)cc3)nn3cccc23)n[nH]1`, the GI50 was 0.514 µM and the TGI turned out to be 3.72 µM.
Consider `COc1ccccc1-c1cc(=O)c2ccc(C)nc2[nH]1`, for which the TGI was over 100 µM.
Regarding `OC(c1ccc(Br)cc1)(c1cccs1)C1CC1` (configuration not stated), the TGI is 54.7 µM.
As for `COc1ccc(-c2nnc(N3CCN(C(=O)CN4CCN(c5ccc(OC)cc5)CC4)CC3)nc2-c2ccc(OC)cc2)cc1`, the GI50 was 2.37 µM and the TGI turned out to be 6.5 µM.
Turning to `C[n+]1c2ccccc2cc2c(CNC(CCCN=C(N)N)C(=O)O)cccc21` (configuration not stated), the GI50 is 0.327 µM; the TGI is 0.679 µM and 1.56 µM.
The compound `Cc1cc2c(Br)cc(Br)c(O)c2nc1C(=O)c1ccccc1` had a TGI of over 100 µM.
In the case of `Cn1cc(-c2csc(-c3cn(C)c4ccccc34)n2)c2cnccc21`, the GI50 is 1.76 µM and the TGI worked out at 4.06 µM.
On to `COc1ccccc1/C=C/C(=O)/C=C/c1ccccc1O`, for which the GI50 is 0.164 µM and the TGI came out at 0.401 µM.
On to `CC(=O)[O-].CC(=O)[O-].CC(=O)[O-].CC(=O)[O-].[Mo+2].[Mo+2]`, for which the GI50 is over 100 µM and the TGI is over 100 µM.
In turn, `Cc1ccccc1Nc1nc2c(s1)C(=O)c1ccccc1C2=O` gave a TGI of 18 µM.
`Cc1nnc(N/N=C(/C(=O)C(C#N)c2ccccc2)C(C#N)c2ccccc2)n1N` (configuration not stated) registered a TGI of 85.8 µM.
Regarding `COc1c(Br)cc(Br)c(OC)c1-c1[nH]c(Br)c(Br)c1Br`, the TGI was found to be 13.2 µM.
Regarding `OB1OCc2cc(/C=C/c3cccc(C(F)(F)F)c3)ccc21`, the GI50 was 2.38 µM and the TGI is over 100 µM.
With `CCOC(=O)c1ccc(N[C@@H]2c3cc4c(cc3C(C3=CC(=O)C(=O)C(OC)=C3)[C@H]3C(=O)OCC32)OCO4)cc1` (some centres not stated), the TGI amounted to 66.8 µM.
`CNC(SC)=C1C(=O)OC(C)(C)OC1=O` gave a TGI of over 100 µM.
Consider `Cn1c(/C(C#N)=C/c2ccc3ccccc3c2)cc2ccccc21`, for which the GI50 is 0.311 µM and the TGI is over 100 µM.
For `CC(CC(=O)Nc1ccc(NC(=O)CC(C)N=NC(N)=S)cc1)N=NC(N)=S` (configuration not stated), the TGI is over 100 µM.
As for `CC(C)c1ccccc1NC(=O)/C(Cl)=C1/Sc2ccccc2NC1=O`, the TGI is 58.8 µM.
`O=C(O)CCC(NC(=S)S)C(=O)O.[Na+].[Zn+2]` (configuration not stated): the GI50 is over 50 µM and the TGI was over 50 µM.
Compound `O=c1c(Cl)c(Cl)cnn1CCc1ccncc1` had a TGI of over 100 µM.

The next test has as its system RXF 393 renal. The experiment in a line: growth of human tumour cells (NCI), 48 h.
Take `Cc1cc(Nc2nc(SCc3ccc(C(=O)Nc4ccc(F)cc4N)cc3)nn3cccc23)n[nH]1`: the GI50 was 0.301 µM and the TGI was found to be 13 µM.
Compound `COc1ccccc1-c1cc(=O)c2ccc(C)nc2[nH]1` gave a TGI of over 100 µM.
`OC(c1ccc(Br)cc1)(c1cccs1)C1CC1` (configuration not stated) came in with a TGI of 39.1 µM.
Turning to `COc1ccc(-c2nnc(N3CCN(C(=O)CN4CCN(c5ccc(OC)cc5)CC4)CC3)nc2-c2ccc(OC)cc2)cc1`, the GI50 was 5.38 µM and the TGI came out at 38.8 µM.
Regarding `C[n+]1c2ccccc2cc2c(CNC(CCCN=C(N)N)C(=O)O)cccc21` (configuration not stated), the GI50 was 2.22 µM; the TGI was 1.34 µM and 4.78 µM.
`Cc1cc2c(Br)cc(Br)c(O)c2nc1C(=O)c1ccccc1` gave a TGI of over 83.6 µM.
With `Cn1cc(-c2csc(-c3cn(C)c4ccccc34)n2)c2cnccc21`, the GI50 is 1.7 µM and the TGI worked out at 3.28 µM.
Consider `COc1ccccc1/C=C/C(=O)/C=C/c1ccccc1O`, for which the TGI was 0.763 µM.
On to `CC(=O)[O-].CC(=O)[O-].CC(=O)[O-].CC(=O)[O-].[Mo+2].[Mo+2]`, for which the GI50 was over 100 µM and the TGI was over 100 µM.
The compound `Cc1ccccc1Nc1nc2c(s1)C(=O)c1ccccc1C2=O` gave a TGI of 19.3 µM.
On the same count and under the same terms, as for `Cc1nnc(N/N=C(/C(=O)C(C#N)c2ccccc2)C(C#N)c2ccccc2)n1N` (configuration not stated), the figure is 24.1 µM; as for `COc1c(Br)cc(Br)c(OC)c1-c1[nH]c(Br)c(Br)c1Br`, 6.01 µM.
In the case of `OB1OCc2cc(/C=C/c3cccc(C(F)(F)F)c3)ccc21`, the GI50 is 2.23 µM and the TGI stood at 11.4 µM.
With `CCOC(=O)c1ccc(N[C@@H]2c3cc4c(cc3C(C3=CC(=O)C(=O)C(OC)=C3)[C@H]3C(=O)OCC32)OCO4)cc1` (some centres not stated), the TGI was determined as 16.8 µM.
Still for that read-out and setting: with `CNC(SC)=C1C(=O)OC(C)(C)OC1=O` the figure was over 100 µM.
Take `Cn1c(/C(C#N)=C/c2ccc3ccccc3c2)cc2ccccc21`: the GI50 was 0.0507 µM and the TGI amounted to 0.474 µM.
In the case of `CC(CC(=O)Nc1ccc(NC(=O)CC(C)N=NC(N)=S)cc1)N=NC(N)=S` (configuration not stated), the TGI is over 100 µM.
As to `CC(C)c1ccccc1NC(=O)/C(Cl)=C1/Sc2ccccc2NC1=O`, the TGI is 49.6 µM.
Regarding `O=C(O)CCC(NC(=S)S)C(=O)O.[Na+].[Zn+2]` (configuration not stated), the GI50 is over 50 µM and the TGI is over 50 µM.
In the case of `O=c1c(Cl)c(Cl)cnn1CCc1ccncc1`, the TGI was determined as 42.2 µM.

For another test, the system named is SF-295 CNS. The experiment in a line: growth of human tumour cells (NCI), 48 h.
As to `Cc1cc(Nc2nc(SCc3ccc(C(=O)Nc4ccc(F)cc4N)cc3)nn3cccc23)n[nH]1`, the GI50 is 0.354 µM and the TGI was found to be 25.9 µM.
For `COc1ccccc1-c1cc(=O)c2ccc(C)nc2[nH]1` the same measures were over 100 µM and over 100 µM.
In the case of `OC(c1ccc(Br)cc1)(c1cccs1)C1CC1` (configuration not stated), the TGI was 44.6 µM.
Take `COc1ccc(-c2nnc(N3CCN(C(=O)CN4CCN(c5ccc(OC)cc5)CC4)CC3)nc2-c2ccc(OC)cc2)cc1`: the GI50 was 20.3 µM and the TGI is over 72.1 µM.
For `C[n+]1c2ccccc2cc2c(CNC(CCCN=C(N)N)C(=O)O)cccc21` (configuration not stated) the same measures were 5.03 µM and 17.5 µM.
`Cc1cc2c(Br)cc(Br)c(O)c2nc1C(=O)c1ccccc1` had a TGI of over 56.4 µM.
As to `Cn1cc(-c2csc(-c3cn(C)c4ccccc34)n2)c2cnccc21`, the GI50 was 1.63 µM and the TGI amounted to 3.07 µM.
